Where “and” joins values, the source holds several entries; their conditions need not be identical. Identical values can stand only once.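 These data come from cells grown in 96-well plates and exposed to compound for 48 hours at five concentrations. GI50 is the concentration that inhibits growth by half. TGI: concentration producing complete growth inhibition.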
How the values were obtained:
Assay in all cases: inhibition of tumour cell growth, NCI panel, 48 h
HCT-15 colon = system: HCT-15 colon
A498 renal = system: A498 renal
SR leukemia = system: SR leukemia
LOX IMVI melanoma = system: LOX IMVI melanoma
HCC-2998 colon = system: HCC-2998 colon
M14 melanoma = system: M14 melanoma
SK-MEL-28 melanoma = system: SK-MEL-28 melanoma
SW-620 colon = system: SW-620 colon
MOLT-4 leukemia = system: MOLT-4 leukemia
OVCAR-5 ovarian = system: OVCAR-5 ovarian

SMILES	TGI (HCT-15 colon)	GI50 (A498 renal)	TGI (A498 renal)	TGI (SR leukemia)	GI50 (LOX IMVI melanoma)	TGI (LOX IMVI melanoma)	GI50 (HCC-2998 colon)	TGI (HCC-2998 colon)	TGI (M14 melanoma)	GI50 (SK-MEL-28 melanoma)	TGI (SK-MEL-28 melanoma)	GI50 (SW-620 colon)	TGI (SW-620 colon)	GI50 (MOLT-4 leukemia)	TGI (MOLT-4 leukemia)	GI50 (OVCAR-5 ovarian)	TGI (OVCAR-5 ovarian)	GI50 (HCT-15 colon)	GI50 (SR leukemia)	GI50 (M14 melanoma)
CO[C@H]1C[C@](C)(O)Cc2cc3c(c(O)c21)C(=O)c1c(O)cc2c(c1C3=O)O[C@@H]1O[C@@]2(C)[C@H](O)[C@@H](N(C)C)[C@@H]1O	3.4 µM and 10.9 µM	1.66 µM	7.95 µM and 5.14 µM	0.647 µM	0.509 µM and 1.06 µM	2.15 µM and 2.71 µM	1.48 µM	3.04 µM and 11.9 µM	2.58 µM and 4.49 µM	1.62 µM	3.35 µM and 19.4 µM	0.847 µM	3.87 µM and 7.69 µM	0.0296 µM and 0.0271 µM	0.186 µM and 0.664 µM	1.37 µM	3.3 µM and 15 µM	–	–	–
O=C(C#Cc1ccccc1)C1=Cc2ccccc2OC1	6.38 µM	–	39.2 µM	> 100 µM	–	6.32 µM	–	19.6 µM	8.21 µM	–	> 65.7 µM	–	9.84 µM	–	> 100 µM	–	15 µM	–	–	–
COc1ccc(/C(C#N)=C/c2cc(OC)c(OC)c(OC)c2)cc1	> 100 µM	22.7 µM	> 100 µM	41.5 µM	22.2 µM	> 100 µM	23.1 µM	> 100 µM	> 100 µM	27.4 µM	> 100 µM	13.6 µM	> 100 µM	20.2 µM	66 µM	35.3 µM	> 100 µM	7.96 µM	3.36 µM	19.3 µM
Cc1cccc(C)c1N1C(=O)C(=O)C(c2nc3ccccc3s2)/C(=N/NC(=O)c2ccccc2O)C1=O (configuration not stated)	> 100 µM	–	> 100 µM	86.3 µM	–	> 100 µM	–	> 73.1 µM	> 100 µM	–	> 83.1 µM	–	> 100 µM	–	> 100 µM	–	> 100 µM	–	–	–
O=C(CI)Nc1ccc(O)c2ccccc12	2.48 µM	2.37 µM	9.12 µM	3.75 µM	1.28 µM	2.68 µM	2.13 µM	4.91 µM	2.63 µM	1.78 µM	3.74 µM	0.282 µM	0.886 µM	0.846 µM	8.18 µM	1.85 µM	3.55 µM	0.817 µM	0.726 µM	1.06 µM
C=C1C(=O)O[C@H]2[C@H]1CC/C(COC(=O)CCCc1c[nH]c3ccccc13)=C\CC[C@@]1(C)O[C@@H]21	3.99 µM	11.9 µM	24.3 µM	6.37 µM	1.55 µM	2.95 µM	1.79 µM	3.46 µM	3.87 µM	1.7 µM	3.27 µM	1.84 µM	4.36 µM	1.53 µM	4.94 µM	1.89 µM	3.98 µM	1.61 µM	1.73 µM	1.66 µM
C=C1C(=O)O[C@H]2[C@H]1CC/C(Cn1cc(-c3ccc(F)cc3)nn1)=C\CC[C@@]1(C)O[C@@H]21	1.19 µM	1.82 µM	3.91 µM	1.18 µM	0.901 µM	2.22 µM	1.74 µM	3.3 µM	2.44 µM	0.822 µM	2.21 µM	0.423 µM	1.54 µM	0.387 µM	2 µM	1.48 µM	3.13 µM	0.282 µM	0.251 µM	0.944 µM
CC(=O)OC12c3ccccc3-c3ccccc3C1C(C(=O)O)C2C(=O)O (configuration not stated)	> 10 µM	–	> 10 µM	> 10 µM	–	> 10 µM	–	> 10 µM	> 10 µM	–	> 10 µM	–	> 10 µM	–	> 10 µM	–	> 10 µM	–	–	–
Cc1ccc(S(=O)(=O)c2ccc(C)cc2[N+](=O)[O-])cc1	> 100 µM	–	> 100 µM	> 100 µM	–	> 100 µM	–	> 100 µM	> 100 µM	–	> 100 µM	–	> 100 µM	–	> 100 µM	–	> 100 µM	–	–	–
CCC1(OC(=O)CN)C(=O)OCc2c1cc1n(c2=O)Cc2cc3ccccc3nc2-1 (configuration not stated)	> 20.3 µM	0.0129 µM	0.159 µM and 0.559 µM	< 0.0347 µM	0.0089 µM	–	0.175 µM	1.08 µM	0.846 µM and 0.174 µM	0.851 µM	38.7 µM	0.0448 µM	> 100 µM	0.00396 µM	0.0305 µM	0.0728 µM	0.6 µM and 0.533 µM	0.192 µM	–	0.0179 µM
Cc1c(N)nc(C(CC(N)=O)NCC(N)C(N)=O)nc1C(=O)NC(C(=O)NC(C)C(O)C(C)C(=O)NC(C(=O)NCCc1nc(-c2nc(C(=O)NCCCNC(C)c3ccccc3)cs2)cs1)C(C)O)C(OC1OC(CO)C(O)C(O)C1OC1OC(CO)C(O)C(OC(N)=O)C1O)c1cnc[nH]1 (configuration not stated)	50 µM and > 100 µM	–	27.5 µM	50 µM and > 100 µM	0.479 µM	2.3 µM and 10.3 µM	–	50 µM and > 100 µM	29.6 µM and > 100 µM	–	50 µM	24.8 µM	50 µM and > 100 µM	3.75 µM	25.9 µM and > 100 µM	2.21 µM	47.2 µM and > 100 µM	26.8 µM	50.3 µM	5.13 µM
Cc1c(Cl)cccc1NC(=O)/C=C/c1ccccc1	> 100 µM	–	> 100 µM	> 100 µM	–	> 100 µM	–	> 100 µM	> 100 µM	–	> 100 µM	–	> 100 µM	–	> 100 µM	–	> 100 µM	–	–	–
CC(=O)/C=C/C1=C(c2csc3ccccc23)c2ccccc2CC1	> 100 µM	22.4 µM	50.2 µM	64.6 µM	16.9 µM	48.4 µM	24.3 µM	49.6 µM	37.3 µM	16.9 µM	37.1 µM	28 µM	> 100 µM	15.6 µM	> 100 µM	33.8 µM	> 100 µM	23.5 µM	16 µM	16.5 µM
C[C@H]1CNC(=O)c2cnn3ccc(nc23)N[C@H](C)c2cc(F)ccc2O1	13.4 µM	0.216 µM	0.886 µM	19.2 µM	0.334 µM	1.43 µM	3.26 µM	70.3 µM	> 100 µM	18.5 µM	> 100 µM	0.517 µM	> 55.1 µM	1.96 µM	42.2 µM	0.385 µM	9.56 µM	2.05 µM	0.05 µM	1.78 µM
CC(C)c1cccc(O)c(=O)c1	> 75 µg/mL and > 100 µM	–	> 100 µM	–	1.94 µg/mL	> 75 µg/mL and > 100 µM	1.63 µg/mL	–	> 75 µg/mL and > 57.5 µM	0.138 µg/mL	–	3.56 µg/mL	> 75 µg/mL and > 100 µM	–	> 46.9 µM	75 µg/mL	> 75 µg/mL and > 100 µM	0.997 µg/mL	0.496 µg/mL	75 µg/mL
CC1=NOC(=O)/C1=C/c1ccc([N+](=O)[O-])cc1	> 100 µM	–	> 100 µM	> 100 µM	–	> 100 µM	–	> 100 µM	> 100 µM	–	> 100 µM	–	> 100 µM	–	> 100 µM	–	> 100 µM	–	–	–
COC(=O)c1c2c(c(C)[n+]([O-])c1C)C(=O)C=C(NCc1cccc(Cl)c1)C2=O	1.52 µM	1.21 µM	2.46 µM	6.64 µM	0.0687 µM	1.35 µM	0.329 µM	1.42 µM	1.56 µM	0.716 µM	2.09 µM	0.244 µM	1.23 µM	0.505 µM	1.89 µM	1.18 µM	2.57 µM	0.205 µM	0.35 µM	0.28 µM
COC(=O)Nc1nc2ccc(C(=O)c3ccccc3)cc2[nH]1	> 100 µM	0.314 µM and 0.325 µM	8.9 µM and 3.26 µM	28.1 µM and > 100 µM	0.625 µM and 0.87 µM	> 100 µM	2.31 µM and 2.13 µM	> 100 µM	6.6 µM	0.651 µM and 0.464 µM	> 100 µM	0.41 µM and 0.259 µM	> 100 µM	0.536 µM and 0.393 µM	> 45.8 µM	5.38 µM and 2.5 µM	> 100 µM	0.451 µM and 0.21 µM	0.168 µM and 0.0444 µM	0.427 µM and 0.257 µM
CCCCCCCCCCCCCCCCOP(=O)([O-])OCC[N+](C)(C)C	–	1.13 µM	5.24 µM and 37.4 µM	3.46 µM and 28.5 µM	1.36 µM	–	1.06 µM	–	–	3.65 µM	14.2 µM and 58.5 µM	2.08 µM	13.9 µM and 57 µM	0.868 µM	–	0.735 µM	4.04 µM and 24.9 µM	0.842 µM	0.546 µM	1.56 µM
Cn1c(-c2ccccc2)c(/C=C/C2=[N+](C)c3ccccc3C2(C)C)c2ccccc21	22.1 µM	1.71 µM	10.9 µM	5.77 µM	0.527 µM	3.25 µM	0.365 µM	3.42 µM	3.4 µM	1.19 µM	11.8 µM	1.52 µM	12.5 µM	1.06 µM	4.06 µM	3.96 µM	20 µM	3.92 µM	0.433 µM	0.963 µM
CC1CC(C)C2OC2(C)C[C@H](C)C(=O)NC(C)C(=O)N(C)[C@H](Cc2c(Br)[nH]c3ccccc23)C(=O)N[C@@H](c2ccc(O)cc2)CC(=O)O1 (some centres not stated)	> 100 µM	–	1.79 µM	> 100 µM	–	1.66 µM	–	0.505 µM	19.5 µM	–	12.2 µM	–	> 90.2 µM	–	57.3 µM	–	18.8 µM	–	–	–

Reference: PubChem BioAssay (NCI)
